The values below come from PMC9311798, “A Novel Class of Potent Anti-Tyrosinase Compounds with Antioxidant Activity, 2-(Substituted phenyl)-5-(trifluoromethyl)benzo[d]thiazoles: In Vitro and In Silico Insights” (Antioxidants, 2022).

In one series the target is T1, mushroom tyrosinase (Agaricus bisporus, UniProt C7FF04).
T1 construct: purchased Sigma-Aldrich
Put plainly: Mushroom tyrosinase inhibition assay. It counts as biochemical. The method, then:
Mushroom tyrosinase inhibitory activity was determined as described previously, with minor modifications. L-Tyrosine was used as a substrate to determine enzyme activities. […] These dose-dependent inhibition experiments were carried out three times using three to five different concentrations of test compounds to determine IC50 values. Log–linear curves and their equations were derived from the observed percentages of inhibition.

In series [1] the test system is B16F10 murine melanoma cells. Description: B16F10 cell viability assay (EZ-Cytox). It is filed as cell-based. The following applies: concentrations ≤20 μM, 48 h. The method, then:
B16F10 murine melanoma cells were obtained from the American Type Culture Collection (ATCC, Manassas, VA, USA). Phosphate buffer solution (PBS), Dulbecco’s modified Eagle’s medium (DMEM), streptomycin, penicillin, trypsin, and fetal bovine serum (FBS) were purchased from Gibco/Thermo Fisher Scientific (Carlsbad, CA, USA). B16F10 cells were cultured in a DMEM solution comprising 10% heat-inactivated FBS, penicillin (100 IU/mL), and streptomycin (100 µg/mL), at 37 °C in a humidified 5% CO2 atmosphere. Experiments for anti-melanogenesis activity, cell viability, and anti-tyrosinase activity were assayed on these cells in 96- or 6-well culture plates.
Cell viability assays for B16F10 were performed using the EZ-Cytox assay (EZ-3000, DoGenBio, Seoul, Korea). In brief, B16F10 cells were seeded in a 96-well plate at a density of 1 × 10^4 cells/well, and cultured at 37 °C for 24 h in a humidified 5% CO2 atmosphere. The next day, B16F10 cells were exposed to six concentrations of 1a or 1b (0, 1, 2, 5, 10, or 20 μM), and incubated under the same conditions for 48 h. Then, the EZ-Cytox solution (10 μL) was added to each well, and the cells mixed with the EZ-Cytox solution were further incubated for 2 h. At 450 nm, optical densities were measured using a microplate reader (VersaMax^TM, Molecular Devices, Sunnyvale, CA, USA).

Series [2] has as its system B16F10 murine melanoma cells. Put plainly: Extracellular melanin content (melanin release into medium) in α-MSH/IBMX-stimulated cells. It counts as cell-based. How it is done: The anti-melanogenic activities of 1a and 1b were determined using a standard melanin content assay, with minor changes. Briefly, B16F10 cells were seeded in the wells of a 6-well plate at a density of 1 × 10^5 cells/well, and allowed to adhere to well bottoms over 24 h under the conditions used for cell culture (Section 2.3.5). […] Absorbances of culture media at 405 nm were used to determine extracellular melanin contents.

The test system of series [3] is B16F10 murine melanoma cells. Put plainly: Intracellular melanin content in α-MSH/IBMX-stimulated cells. It counts as cell-based. The method, then: The cultured cells were rinsed with PBS twice and pellets were dissolved in 200 µL of 1N-NaOH solution containing 10% DMSO for 1 h at 60 °C. Cell lysates were then transferred to a 96-well plate, and the melanin absorbances were measured in aqueous DMSO at 405 nm using a microplate reader (VersaMax^TM, Molecular Devices, Sunnyvale, CA, USA).

Series [4] concerns the target T2, cellular tyrosinase in B16F10 cells (Mus musculus, UniProt P11344).
T2 construct: endogenous in cells; host or cells: B16F10 murine melanoma cells, stimulated with alpha-MSH and IBMX
T2 sequence (P11344 19-533): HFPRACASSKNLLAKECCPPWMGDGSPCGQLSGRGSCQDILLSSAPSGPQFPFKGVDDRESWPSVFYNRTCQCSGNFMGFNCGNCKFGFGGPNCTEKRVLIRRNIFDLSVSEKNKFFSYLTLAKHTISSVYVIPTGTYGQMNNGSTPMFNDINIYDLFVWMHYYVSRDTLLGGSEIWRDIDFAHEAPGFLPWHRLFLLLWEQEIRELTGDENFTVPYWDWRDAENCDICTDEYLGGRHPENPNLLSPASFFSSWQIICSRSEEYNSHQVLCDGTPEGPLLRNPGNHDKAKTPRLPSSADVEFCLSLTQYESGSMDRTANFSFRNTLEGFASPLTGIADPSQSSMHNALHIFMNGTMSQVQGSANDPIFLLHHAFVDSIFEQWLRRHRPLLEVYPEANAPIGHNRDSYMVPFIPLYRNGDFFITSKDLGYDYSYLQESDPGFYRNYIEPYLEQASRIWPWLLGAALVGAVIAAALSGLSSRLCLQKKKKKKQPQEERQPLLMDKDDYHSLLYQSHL
Description: Cellular tyrosinase activity (L-DOPA oxidation) in α-MSH/IBMX-stimulated cells. It counts as cell-based, murine. How it is done:
Cellular tyrosinase activity was assessed by measuring the oxidation rate of L-DOPA as previously described, with minor modifications. In brief, B16F10 cells were seeded in a 6-well plate at 1 × 10^5 cells/well, and allowed to adhere to well bottoms for 24 h, as described in Section 2.3.5. […]. Cells were then rinsed twice with PBS, exposed to 100 µL of lysis buffer solution (90 µL of 50 mM phosphate buffer (pH 6.5), 5 µL of 2 mM PMSF, and 5 µL of 20% Triton X-100), and lysed at −80 °C for 30 min. After defrosting, cell lysates were transferred to microcentrifuge tubes and centrifuged at 12,000 rpm for 30 min at 4°C, and supernatants (80 µL) were mixed with 20 µL of L-DOPA (2 mg/mL) in a 96-well plate, and incubated for 10 min at 37 °C. Absorbances were measured at 475 nm using a microplate reader (VersaMax^TM, Molecular Devices, Sunnyvale, CA, USA).

Where [5] appears, read: read-out: Mushroom tyrosinase inhibition (%).
Where [6] appears, read: 10 µM, compared with kojic acid 20 µM.

T1 sequence (C7FF04 1-392 limits assumed): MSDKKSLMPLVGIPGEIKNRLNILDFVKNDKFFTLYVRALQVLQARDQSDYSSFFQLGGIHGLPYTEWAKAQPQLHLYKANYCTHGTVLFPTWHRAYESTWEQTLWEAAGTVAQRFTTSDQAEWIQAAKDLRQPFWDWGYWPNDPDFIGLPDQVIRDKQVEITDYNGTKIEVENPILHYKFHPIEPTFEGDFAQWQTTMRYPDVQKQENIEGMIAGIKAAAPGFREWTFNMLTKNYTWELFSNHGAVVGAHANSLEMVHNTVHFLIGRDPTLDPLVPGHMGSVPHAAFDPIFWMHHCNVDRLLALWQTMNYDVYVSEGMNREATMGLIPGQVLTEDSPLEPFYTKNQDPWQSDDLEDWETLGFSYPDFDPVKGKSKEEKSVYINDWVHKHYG

Compound `Oc1ccc(-c2nc3cc(C(F)(F)F)ccc3s2)cc1` [Compound 1a, 4-(5-(Trifluoromethyl)benzo[d]thiazol-2-yl)phenol] gave a melting point of 187.2 to 188.9 °C. The compound also displayed an IC50 on mushroom tyrosinase (L-tyrosine as substrate) of 54.2 ± 0.82 µM. For the same compound, at mushroom tyrosinase (setting [5]), the inhibition at 10 µM turned out to be 30.4 ± 0.31% and the inhibition at 50 µM was 48.2 ± 0.25%. The “cytotoxic effect on B16F10 cell viability” value in series [1] is given as “Neither compound exhibited a significant cytotoxic effect”. The melanin release result in series [2] (20 µM) is recorded as “reduced melanin release to control levels”. The “effect on melanin content in media” value in series [2] (5, 10, 20 µM, α-MSH (1 µM) + IBMX (200 µM), 48 h) is “concentration-dependently and significantly reduced melanin content increases”. In addition, the “inhibition of α-MSH/IBMX-induced intracellular melanin increase” value in series [3] (setting [6]) is given as “more potently inhibited α-MSH/IBMX-induced increases in melanin than kojic acid at 20 µM”. In series [3] (5, 10, 20 µM, α-MSH + IBMX, 48 h), the “effect on intracellular melanin content” value was “significantly and concentration-dependently reduced intracellular melanin increases”. Further, in series [4] (setting [6]), the cellular tyrosinase activity result is recorded as “reduced tyrosinase activity to that achieved by 20 µM kojic acid”. Moreover, in series [4] (5, 10, 20 µM, IBMX + α-MSH, 48 h), the “effect on cellular tyrosinase activity” value is “significantly and concentration-dependently suppressed”.

What is called IC50 is the concentration at which inhibition is half-maximal. Low values mean inhibition by little substance, high ones a need for much substance. What is called inhibition is the relative decrease from the control value, in per cent. Usually melting point stands for the temperature, or range, at which the solid turns liquid.
